Structures can show the parent of a compound that is named as a salt.
What was measured:
[1] = molecular target: T1, TNKS1 (Homo sapiens, UniProt O95271); test: Modified TNKS1 Assay 3 (BPS kit #80573, biotin-NAD+, 96 well); type: biochemical; conditions: human TNKS1, BPS kit #80573, 96 well
T1 sequence (O95271 1-1327): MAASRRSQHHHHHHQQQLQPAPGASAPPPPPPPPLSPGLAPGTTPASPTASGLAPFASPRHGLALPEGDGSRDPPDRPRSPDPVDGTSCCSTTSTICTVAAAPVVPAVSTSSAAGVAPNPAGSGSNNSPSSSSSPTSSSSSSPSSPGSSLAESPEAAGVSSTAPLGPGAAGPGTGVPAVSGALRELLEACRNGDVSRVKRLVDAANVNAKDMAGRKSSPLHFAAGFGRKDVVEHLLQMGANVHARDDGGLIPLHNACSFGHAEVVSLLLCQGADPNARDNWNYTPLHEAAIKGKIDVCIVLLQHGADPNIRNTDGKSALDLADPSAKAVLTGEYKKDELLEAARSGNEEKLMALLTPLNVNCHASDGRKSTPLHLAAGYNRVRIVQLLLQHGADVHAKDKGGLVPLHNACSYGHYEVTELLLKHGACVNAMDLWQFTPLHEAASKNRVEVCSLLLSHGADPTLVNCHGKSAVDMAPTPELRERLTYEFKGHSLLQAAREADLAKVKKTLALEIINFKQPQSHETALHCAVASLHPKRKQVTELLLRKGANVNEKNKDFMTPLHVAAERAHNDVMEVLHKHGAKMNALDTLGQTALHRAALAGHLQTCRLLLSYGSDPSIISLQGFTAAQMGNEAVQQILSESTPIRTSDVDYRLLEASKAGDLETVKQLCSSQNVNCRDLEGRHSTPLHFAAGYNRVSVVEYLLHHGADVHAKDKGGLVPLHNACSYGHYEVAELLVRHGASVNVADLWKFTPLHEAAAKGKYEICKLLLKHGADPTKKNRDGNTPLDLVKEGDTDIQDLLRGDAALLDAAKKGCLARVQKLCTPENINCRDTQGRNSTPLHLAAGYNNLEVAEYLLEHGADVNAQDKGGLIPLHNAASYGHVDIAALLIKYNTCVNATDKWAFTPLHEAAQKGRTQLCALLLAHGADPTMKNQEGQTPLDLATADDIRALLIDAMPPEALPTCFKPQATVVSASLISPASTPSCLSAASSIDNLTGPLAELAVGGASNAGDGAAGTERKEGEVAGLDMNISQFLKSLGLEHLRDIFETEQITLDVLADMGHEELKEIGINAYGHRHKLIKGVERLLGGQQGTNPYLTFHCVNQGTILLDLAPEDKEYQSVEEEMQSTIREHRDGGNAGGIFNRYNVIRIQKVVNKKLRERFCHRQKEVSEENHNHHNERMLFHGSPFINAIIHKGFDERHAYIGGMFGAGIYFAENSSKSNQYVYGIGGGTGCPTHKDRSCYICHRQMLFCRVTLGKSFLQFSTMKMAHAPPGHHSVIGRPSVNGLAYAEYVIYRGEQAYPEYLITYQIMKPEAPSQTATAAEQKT
Outline: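 Chemiluminescent assay of TNKS1-catalysed ribosylation of a protein substrate with biotin-labelled NAD+, detected via streptavidin-HRP; run per kit protocol. Inhibition lowers the signal, and IC50 is the compound concentration halving the normalised readout.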

[2] = tested on: wildtype Wnt signaling cascade; test: HEK293 TOP Assay (Super TopFlash luciferase reporter, Wnt-3a stimulated); type: cell-based; conditions: Homo sapiens, HEK293 TOP reporter cell line, Wnt-3a at EC50, 16 hours incubation, compound dilution series 50 μM to 15 nM
Outline: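 Compounds (50 μM down to 15 nM, 3.16-fold steps, in CAFTY buffer pH 7.4, 2 mM Ca2+, 0.01% BSA) tested in parallel on TOP and FOP HEK293 reporter lines to define selective wildtype Wnt inhibition. Pathway driven by recombinant human Wnt-3a applied at 2500–5 ng/ml in two-fold dilutions.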

Row | Compound | IC50 [1] | IC50 ([2]; HEK293, 16 h) | IC50 [2]
1 | O=C(Nc1ccc(NC(=O)c2nc[nH]c2C(=O)NCC2CCCN2)cc1)c1ccc(F)cc1Cl (stereo not shown) [Example 284, N^4-{4-[(2-chloro-4-fluorobenzoyl)amino]phenyl}-N^5-(pyrrolidin-2-ylmethyl)-1H-imidazole-4,5-dicarboxamide hydrochloride salt] | 60 nM |  | 680 nM
2 | CC(C)(N)CCNC(=O)c1[nH]cnc1C(=O)Nc1ccc(NC(=O)c2ccc(F)cc2Cl)cc1 [Example 286, N^5-(3-amino-3-methylbutyl)-N^4-{4-[(2-chloro-4-fluorobenzoyl)amino]phenyl}-1H-imidazole-4,5-dicarboxamide] | 70 nM | 460 nM | 
3 | CNCCNC(=O)c1[nH]cnc1C(=O)Nc1ccc(NC(=O)c2ccc(F)cc2Cl)cc1 [Example 287, N^4-{4-[(2-chloro-4-fluorobenzoyl)amino]phenyl}-N^5-[2-(methylamino)ethyl]-1H-imidazole-4,5-dicarboxamide] | 80 nM | 750 nM | 
4 | CN1CCN(CCCNC(=O)c2nc[nH]c2C(=O)Nc2ccc(NC(=O)c3ccc(F)cc3Cl)cc2)CC1 [Example 392, N^5-{4-[(2-chloro-4-fluorobenzoyl)amino]phenyl}-N^4-[3-(4-methylpiperazin-1-yl)propyl]-1H-imidazole-4,5-dicarboxamide] | 20 nM | 160 nM | 

Further lines, with some results ahead:

Row | IC50 [1] | IC50 ([2]; HEK293, 16 h) | Compound | IC50 [2]
5 | 30 nM | 990 nM | CC(C)NCCNC(=O)c1[nH]cnc1C(=O)Nc1ccc(NC(=O)c2ccc(F)cc2Cl)cc1 [Example 288, N^4-{4-[(2-chloro-4-fluorobenzoyl)amino]phenyl}-N^5-[2-(isopropylamino)ethyl]-1H-imidazole-4,5-dicarboxamide] | 
6 | > 500 nM | 900 nM | CNC(=O)c1nc[nH]c1C(=O)Nc1ccc(NC(=O)c2cccc(C)c2Cl)cc1 [Example 346, N^5-{4-[(2-chloro-3-methylbenzoyl)amino]phenyl}-N^4-methyl-1H-imidazole-4,5-dicarboxamide] | 
7 | 260 nM | 750 nM | CNC(=O)c1nc[nH]c1C(=O)Nc1ccc(NC(=O)c2ccc(C#N)cc2F)cc1 [Example 369, N^5-{4-[(4-cyano-2-fluorobenzoyl)amino]phenyl}-N^4-methyl-1H-imidazole-4,5-dicarboxamide] | 
8 | 0.9 nM | 250 nM | CCN1CCCC1CNC(=O)c1nc[nH]c1C(=O)Nc1ccc(NC(=O)c2ccc(F)cc2Cl)cc1 (stereo not shown) [Example 390, N^5-{4-[(2-chloro-4-fluorobenzoyl)amino]phenyl}-N^4-[(1-ethylpyrrolidin-2-yl)methyl]-1H-imidazole-4,5-dicarboxamide] | 
9 | 20 nM | 360 nM | CC1CCN(CCCNC(=O)c2nc[nH]c2C(=O)Nc2ccc(NC(=O)c3ccc(F)cc3Cl)cc2)CC1 [Example 400, N^5-{4-[(2-chloro-4-fluorobenzoyl)amino]phenyl}-N^4-[3-(4-methylpiperidin-1-yl)propyl]-1H-imidazole-4,5-dicarboxamide] | 
10 | 1 nM | 90 nM | CCN1CCC[C@H]1CNC(=O)c1nc[nH]c1C(=O)Nc1ccc(NC(=O)c2ccc(F)cc2Cl)cc1 [Example 404, N^5-{4-[(2-chloro-4-fluorobenzoyl)amino]phenyl}-N^4-{[(2S)-1-ethylpyrrolidin-2-yl]methyl}-1H-imidazole-4,5-dicarboxamide] | 
11 | 10 nM | 230 nM | CN1CCC(CNC(=O)c2nc[nH]c2C(=O)Nc2ccc(NC(=O)c3ccc(F)cc3Cl)cc2)C1 (stereo not shown) [Example 407, N^5-{4-[(2-chloro-4-fluorobenzoyl)amino]phenyl}-N^4-[(1-methylpyrrolidin-3-yl)methyl]-1H-imidazole-4,5-dicarboxamide] | 

Source: patent US9884063B2, “Amido-substituted azole compounds” (Bayer Pharma Aktiengesellschaft, priority 2014, dated 2018)
